In PubChem BioAssay AID270 (DTP/NCI, 2004):
Where “and” joins values, the source holds several entries; their conditions need not be identical. Equal values may be shown once. Inconclusive results are not listed.

Tested on: BDF1 mice, s.c. Lewis lung carcinoma, T/C %
Test: NCI In Vivo Anticancer Drug Screen. Data for tumor model Lewis Lung Carcinoma (subcutaneous) in B6D2F1 (BDF1) mice
Method: The antitumor activity of compounds was measured in mice bearing transplantable tumors. Survival or tumor size were measured and the results are expressed as the measurement made in the treated group (T) divided by the measurement made in the vehicle treated control group (C). The tumor model used in this assay is Lewis Lung Carcinoma (subcutaneous) in B6D2F1 (BDF1) mice

Structure (SMILES): Cc1cc2c(c3oc(C4(C)OC4C4OC4C)cc(=O)c13)C(=O)c1c(O)c(C3CC(C)(N(C)C)C(O)C(C)O3)cc(C3CC(N(C)C)C(O)C(C)O3)c1C2=O (centres undefined)
- T/C (endpoint: median survival time, dose: 4.0 micrograms/kg/injection, schedule: Q01DX009 (ip), vehicle: DMSO, higher = longer survival): 105 % of control
- T/C (endpoint: median survival time, dose: 8.0 micrograms/kg/injection, schedule: Q01DX009 (ip), vehicle: DMSO, higher = longer survival): 108 % of control
- T/C (endpoint: median survival time, dose: 16.0 micrograms/kg/injection, schedule: Q01DX009 (ip), vehicle: DMSO, higher = longer survival): 100 % of control

Structure (SMILES): O=C(O)c1ccc(-c2ccccc2)cc1
- T/C (endpoint: mean tumor weight, dose: 60.0 mg/kg/injection, schedule: Q01DX011 (ip), vehicle: carboxymethylcellulose (CMC), higher = larger tumour): 61 % of control
- T/C (endpoint: mean tumor weight, dose: 90.0 mg/kg/injection, schedule: Q01DX011 (ip), vehicle: carboxymethylcellulose (CMC), higher = larger tumour): 80 % of control
- T/C (endpoint: mean tumor weight, dose: 135.0 mg/kg/injection, schedule: Q01DX011 (ip), vehicle: carboxymethylcellulose (CMC), higher = larger tumour): 65 % of control
- T/C (endpoint: mean tumor weight, dose: 200.0 mg/kg/injection, schedule: Q01DX011 (ip), vehicle: carboxymethylcellulose (CMC), higher = larger tumour): 33 % of control and 42 % of control

Structure (SMILES): CC(NC(=O)C1(N)CCCC1)C(=O)O (centres undefined)
- T/C (endpoint: mean tumor weight, dose: 6.0 mg/kg/injection, schedule: Q01DX011 (ip), vehicle: carboxymethylcellulose (CMC), higher = larger tumour): 59 % of control
- T/C (endpoint: mean tumor weight, dose: 25.0 mg/kg/injection, schedule: Q01DX011 (ip), vehicle: carboxymethylcellulose (CMC), higher = larger tumour): 60 % of control

Structure (SMILES): O=C(/C(=C\c1ccccc1)CN1CCOCC1)c1ccc(Br)cc1
- T/C (endpoint: median survival time, dose: 50.0 mg/kg/injection, schedule: Q01DX009 (ip), vehicle: saline, higher = longer survival): 113 % of control
- T/C (endpoint: median survival time, dose: 100.0 mg/kg/injection, schedule: Q01DX009 (ip), vehicle: saline, higher = longer survival): 105 % of control

Structure (SMILES): Nc1ncnc2c(C3OC(CO)C(O)C3O)[nH]nc12 (centres undefined)
- T/C (endpoint: mean tumor weight, dose: 10.5 mg/kg/injection, schedule: Q01DX011 (ip), vehicle: carboxymethylcellulose (CMC), higher = larger tumour): 66 % of control

Structure (SMILES): CCC(=O)O[C@H]1CC[C@H]2[C@@H]3CCC4=CC(=O)CC[C@]4(C)[C@H]3CC[C@]12C
- T/C (endpoint: mean tumor weight, dose: 125.0 mg/kg/injection, schedule: Q01DX011 (ip), vehicle: steriod suspending solution, higher = larger tumour): 86 % of control
- T/C (endpoint: mean tumor weight, dose: 250.0 mg/kg/injection, schedule: Q01DX011 (ip), vehicle: steriod suspending solution, higher = larger tumour): 70 % of control
- T/C (endpoint: mean tumor weight, dose: 500.0 mg/kg/injection, schedule: Q01DX011 (ip), vehicle: steriod suspending solution, higher = larger tumour): 84 % of control
- T/C (endpoint: median survival time, dose: 40.0 mg/kg/injection, schedule: Q02DX009 (ip), vehicle: Klucel (hydroxypropylcellulose) (HPC), higher = longer survival): 90 % of control
- T/C (endpoint: median survival time, dose: 80.0 mg/kg/injection, schedule: Q02DX009 (ip), vehicle: Klucel (hydroxypropylcellulose) (HPC), higher = longer survival): 97 % of control
- T/C (endpoint: median survival time, dose: 160.0 mg/kg/injection, schedule: Q02DX009 (ip), vehicle: Klucel (hydroxypropylcellulose) (HPC), higher = longer survival): 103 % of control
- T/C (endpoint: median survival time, dose: 320.0 mg/kg/injection, schedule: Q02DX009 (ip), vehicle: Klucel (hydroxypropylcellulose) (HPC), higher = longer survival): 90 % of control

Structure (SMILES): COc1ccccc1-c1cc(=O)c2ccc(OC)c(OC)c2o1
- T/C (endpoint: mean tumor weight, dose: 18.8 mg/kg/injection, schedule: Q01DX010 (ip), vehicle: saline, higher = larger tumour): 99 % of control
- T/C (endpoint: mean tumor weight, dose: 37.5 mg/kg/injection, schedule: Q01DX010 (ip), vehicle: saline, higher = larger tumour): 81 % of control
- T/C (endpoint: mean tumor weight, dose: 75.0 mg/kg/injection, schedule: Q01DX010 (ip), vehicle: saline, higher = larger tumour): 108 % of control
- T/C (endpoint: mean tumor weight, dose: 150.0 mg/kg/injection, schedule: Q01DX010 (ip), vehicle: saline, higher = larger tumour): 76 % of control

Structure (SMILES): CCN(CC)CC(C)Nc1ccc(C)c2sc3ccccc3c(=O)c12 (centres undefined)
- T/C (endpoint: mean tumor weight, dose: 10.0 mg/kg/injection, schedule: Q01DX011 (ip), vehicle: other, higher = larger tumour): 104 % of control
- T/C (endpoint: mean tumor weight, dose: 40.0 mg/kg/injection, schedule: Q01DX011 (ip), vehicle: other, higher = larger tumour): 68 % of control
- T/C (endpoint: mean tumor weight, dose: 160.0 mg/kg/injection, schedule: Q01DX011 (ip), vehicle: other, higher = larger tumour): 30 % of control

Structure (SMILES): CNC(=O)Nc1ccccc1C(=O)NN
- T/C (endpoint: median survival time, dose: 25.0 mg/kg/injection, schedule: Q01DX009 (ip), vehicle: Klucel (hydroxypropylcellulose) (HPC), higher = longer survival): 113 % of control
- T/C (endpoint: median survival time, dose: 50.0 mg/kg/injection, schedule: Q01DX009 (ip), vehicle: Klucel (hydroxypropylcellulose) (HPC), higher = longer survival): 96 % of control
- T/C (endpoint: median survival time, dose: 100.0 mg/kg/injection, schedule: Q01DX009 (ip), vehicle: Klucel (hydroxypropylcellulose) (HPC), higher = longer survival): 102 % of control
- T/C (endpoint: median survival time, dose: 200.0 mg/kg/injection, schedule: Q01DX009 (ip), vehicle: Klucel (hydroxypropylcellulose) (HPC), higher = longer survival): 93 % of control

Structure (SMILES): CNC1=C(N2CC2)C(=O)C(NC)=C(N2CC2)C1=O
- T/C (endpoint: median survival time, dose: 0.02 mg/kg/injection, schedule: Q01DX009 (ip), vehicle: saline, higher = longer survival): 120 % of control
- T/C (endpoint: median survival time, dose: 0.1 mg/kg/injection, schedule: Q01DX009 (ip), vehicle: saline, higher = longer survival): 113 % of control
- T/C (endpoint: median survival time, dose: 0.2 mg/kg/injection, schedule: Q01DX009 (ip), vehicle: saline, higher = longer survival): 105 % of control
- T/C (endpoint: median survival time, dose: 0.4 mg/kg/injection, schedule: Q01DX009 (ip), vehicle: saline, higher = longer survival): 124 % of control
